The record followed here is patent US4414219A, “Antidepressant (α-phenyl-2-tolyl)azacycloalkanols and derivatives thereof” (American Hoechst Corporation, priority 1980, dated 1983).

Counter-ions that a name gives are not always drawn. Like-named read-outs stand apart in the source and are kept apart here.

What is called ED50 is the midpoint of the dose-response relation.

Common to all, as to type: in vivo
In one experiment the test system is toxicity of amphetamine. In words: Amphetamine Aggregation Toxicity Reversal Assay (tranquilizer). Conditions: 20 mg/kg oral; against 15 mg/kg intraperitoneal amphetamine sulfate; aggregated mice, survival up to 3 hours. From the text: Compounds of the invention are still further useful as tranquilizers due to their ability to reverse toxicity of amphetamine as measured in the Amphetamine Aggregation Toxicity Reversal Assay [Chance, M. R. A., J. Pharmacol. Exper. Therap. 87, pp. 214-219 (1946) and Proctor, C. D., Putts, J. T., Lundy, R. O., and Greenfield, E. J., Arch. Int. Pharmacodynam. 163, (1), pp. 79-86 (1966)]. In our assay "aggregated mice" mean 5 mice/group placed in such a manner as to yield 20 cm^2 of floor space per mouse. Animals are aggregated immediately after injection with amphetamine sulfate and then checked for survival up to 3 hours. For example, under these conditions an oral dosage of 20 mg/kg of body weight of 1-[3-(4-fluorobenzoyl)propyl]-4-(α-phenyl-2-tolyl)piperidine effects a 60% protection against the intraperitoneal dose of 15 mg/kg of amphetamine sulfate.

Experiment [1] concerns supra maximal electro shock (SES). Put plainly: protection from supra maximal electro shock (SES), anticonvulsant. The method, then:
Compounds of the present invention are further useful as anticonvulsant agents for mammals, as determined by the method of Woodbury, L. A. and Davenport, V. D., in Arch, Int. Pharmacodynam, Vol. 92, (1952) at pages 97-107. For example, the intraperitoneal dose of 17.6 mg/kg of body weight of 1-methyl-4-[-(4,fluorophenyl)-2-tolyl]-1,2,3,6-tetrahydropyridine hydrobromide produces an 83% protection from the effect of supra maximal electro shock (SES). Intraperitoneal doses of other representative compounds of the invention and their ability to protect from the effect of SES is shown below in Table IV.

Experiment [2] relates to tetrabenazine-induced ptosis. In words: inhibition of tetrabenazine-induced ptosis in mice (antidepressant assay). Conditions: Mus musculus, ip, read-out: ED50 (50% inhibition from the ptosis of tetrabenazine-induced depression). From the text:
Thus, for instance, the intraperitoneal dosages at which the following compounds (ED50) effect a 50% inhibition from the ptosis of tetrabenazine-induced depression in mice are:
It is to be noted and stressed at this point that the substitution of a benzyl in the 2- or ortho position of the phenyl ring, in the compounds of the invention, is critical to biological especially antidepressant, activity. Where the benzyl is substituted in the 3- or meta position or the 4- or para position, the corresponding compound is relatively ineffective as compared to the 2-substituted compounds of the invention. In this regard, reference is made to the following Table II which illustrates such criticality in the form of intraperitoneal dosages at which a series (A. B. and C.) of 2-, 3- and 4-substituted compounds effect a 50% inhibition from the ptosis of tetrabenazine-induced depression in mice: […]

The test system of experiment [3] is 2-phenyl-1,4-quinone induced writhing. Put plainly: 2-phenyl-1,4-quinone induced writhing assay in mice (analgesia). The conditions noted are these: for inhibition of writhing: 60 mg/kg p.o., comparison. As to the method: Compounds of the invention are also useful as analgesic agents due to their ability to alleviate pain in mammals. […] Exptl. Biol. Med., 95, 729 (1957)]. Thus, for example, a 50% inhibition in writhing is effected by the oral administration of 28.4 mg/kg of body weight of 4-acetoxy-1-methyl-4-(α-phenyl)-2-tolyl)piperidine hydrochloride. Other representative compounds of the invention and their respective ability to inhibit said writhing is shown below in Table III.

Experiment [4] concerns tetrabenazine-induced ptosis. In words: inhibition of tetrabenazine-induced ptosis in mice (antidepressant assay). Conditions: 25 mg/kg intraperitoneal.
Where [5] appears, read: intraperitoneal, mice, Table II (2-, 3- and 4-substituted series A, B, C).

Take `O=C(CCCN1CCC(c2ccccc2Cc2ccccc2)CC1)c1ccc(F)cc1` [1-[3-(4-fluorobenzoyl)propyl]-4-(α-phenyl-2-tolyl)piperidine]: the “protection against amphetamine sulfate toxicity” value with toxicity of amphetamine worked out at 60%.

Turning to `Cl.OC1(c2ccccc2Cc2ccccc2)CCN(Cc2ccccc2)C1` (stereo not drawn) [1-benzyl-3-(α-phenyl-2-tolyl)-3-pyrrolidinol hydrochloride], the “% SES Protection” value in experiment [1] (50 mg/kg intraperitoneal) is listed as 83%.

Take `ON1CCC(c2ccccc2Cc2ccccc2)CC1` [1-hydroxy-4-(α-phenyl-2-tolyl)piperidine]: the ED50 in experiment [2] (intraperitoneal, mice, Table I) came to 3 mg/kg.

Turning to `CN1CC=C(c2ccccc2Cc2ccccc2)CC1` [1-methyl-4-(α-phenyl-2-tolyl)-1,2,3,6-tetrahydropyridine], in experiment [2], the median effective dose (ED50) amounted to 8.8 mg/kg.

Consider `CN1CCC(O)(c2ccccc2Cc2ccccc2)CC1` [1-methyl-4-(α-phenyl-2-tolyl)-4-piperidinol], for which the “% SES Protection” value in experiment [1] (36 mg/kg intraperitoneal) was 50%. In addition, in experiment [2], the ED50 was 8 mg/kg. Also, the “% Inhibition in Writhing” value in experiment [3] (50.0 mg/kg po, mice) is 41%.

In the case of `CCC(=O)OC1(c2ccccc2Cc2ccccc2)CCN(C)CC1.Cl` [1-methyl-4-(α-phenyl-2-tolyl)-4-propionyloxypiperidine hydrochloride], the “% SES Protection” value in experiment [1] (50 mg/kg intraperitoneal) was 50%. For the same molecule, the “% Inhibition in Writhing” value in experiment [3] (8.9 mg/kg sc, mice) was found to be 50%.

Take `CN1CCC(c2ccccc2Cc2ccccc2)CC1.Cl` [1-methyl-4-(α-phenyl-2-tolyl)piperidine hydrochloride]: the “% SES Protection” value in experiment [1] (50 mg/kg intraperitoneal) is listed as 83%. For the same molecule, the median effective dose (ED50) in experiment [2] (setting [5]) turned out to be 2.5 mg/kg. Moreover, in experiment [3] (61.7 mg/kg po, mice), the “% Inhibition in Writhing” value came to 50%.

Regarding `CN1CC=C(c2cccc(Cc3ccccc3)c2)CC1` [1-methyl-4-(α-phenyl-3-tolyl)-1,2,3,6-tetrahydropyridine, reference compound], in experiment [2], the median effective dose (ED50) was over 50 mg/kg.

For the molecule `CN1CCC(c2cccc(Cc3ccccc3)c2)CC1.O=C(O)C(=O)O` [1-methyl-4-(α-phenyl-3-tolyl)piperidine oxalate, reference compound], the ED50 in experiment [2] (setting [5]) was over 20 mg/kg.

On to `CN1CC=C(c2ccc(Cc3ccccc3)cc2)CC1` [1-methyl-4-(α-phenyl-4-tolyl)-1,2,3,6-tetrahydropyridine, reference compound], for which, in experiment [2], the median effective dose (ED50) is over 50 mg/kg.

In the case of `CN1CCC(c2ccc(Cc3ccccc3)cc2)CC1.O=C(O)C(=O)O` [1-methyl-4-(α-phenyl-4-tolyl)piperidine oxalate, reference compound], the ED50 in experiment [2] (setting [5]) is over 20 mg/kg.

For the molecule `CN1CCC(O)(c2ccccc2Cc2ccc(F)cc2)CC1` [1-methyl-4-[α-(4-fluorophenyl)-2-tolyl]-4-piperidinol], in experiment [1] (23.3 mg/kg intraperitoneal), the “% SES Protection” value worked out at 50%. Also, in experiment [2], the 50% effective dose (ED50) amounted to 8.2 mg/kg.

Regarding `Br.COc1ccc(Cc2ccccc2C2=CCN(C)CC2)cc1` [1-methyl-4-[α-(4-methoxyphenyl)-2-tolyl]-1,2,3,6-tetrahydropyridine hydrobromide], the “% SES Protection” value in experiment [1] (25.6 mg/kg intraperitoneal) is 50%.

Regarding `Br.c1ccc(CCN2CCC(c3ccccc3Cc3ccccc3)CC2)cc1` [1-phenethyl-4-(α-phenyl-2-tolyl)piperidine hydrobromide], the “% SES Protection” value in experiment [1] (37.5 mg/kg intraperitoneal) was 50%.

`C1=C(c2ccccc2Cc2ccccc2)CCNC1` [4-(α-phenyl-2-tolyl)-1,2,3,6-tetrahydropyridine]: the ED50 in experiment [2] is 2.1 mg/kg. For the same molecule, in experiment [3] (7.8 mg/kg sc, mice), the “% Inhibition in Writhing” value is 50%.

As to `Cl.OC1(c2ccccc2Cc2ccccc2)CCNCC1` [4-(α-phenyl-2-tolyl)-4-piperidinol hydrochloride], the median effective dose (ED50) in experiment [2] (intraperitoneal, mice, Table I) came out at 5.4 mg/kg.

Regarding `Cl.c1ccc(Cc2ccccc2C2CCNCC2)cc1` [4-(α-phenyl-2-tolyl)piperidine hydrochloride], in experiment [2] (setting [5]), the ED50 was 1.7 mg/kg.

`Cl.c1ccc(Cc2cccc(C3CCNCC3)c2)cc1` [4-(α-phenyl-3-tolyl)piperidine hydrochloride, reference compound]: in experiment [2] (setting [5]), the median effective dose (ED50) is over 20 mg/kg.

Turning to `Cl.c1ccc(Cc2ccc(C3CCNCC3)cc2)cc1` [4-(α-phenyl-4-tolyl)piperidine hydrochloride, reference compound], the ED50 in experiment [2] (setting [5]) is over 20 mg/kg.

Regarding `Br.CN1CC=C(c2ccccc2Cc2ccc(F)cc2)CC1` [4-[α-(4-fluorophenyl)-2-tolyl]-1-methyl-1,2,3,6-tetrahydropyridine hydrobromide], the “protection from the effect of supra maximal electro shock (SES)” value in experiment [1] (17.6 mg/kg intraperitoneal) was determined as 83%. Moreover, in experiment [2], the ED50 worked out at 8 mg/kg.

As to `CC(=O)OC1(c2ccccc2Cc2ccccc2)CCN(C)CC1.Cl` [4-acetoxy-1-methyl-4-(α-phenyl-2-tolyl)piperidine hydrochloride], in experiment [4], the “inhibition from the ptosis of tetrabenazine-induced depression” value came out at 40%. In addition, the inhibition in writhing in experiment [3] (28.4 mg/kg oral, mice) came out at 50%.

Take `CN1CCC(OC(=O)c2ccccc2)(c2ccccc2Cc2ccccc2)CC1.Cl` [4-benzoyloxy-1-methyl-4-(α-phenyl-2-tolyl)piperidine hydrochloride]: the “% Inhibition in Writhing” value in experiment [3] (12.8 mg/kg sc, mice) is 50%.

In experiment [3], `CC(=O)Oc1ccccc1C(=O)O` [aspirin, reference compound] gave an inhibition of writhing of 34%.

Regarding `CCC(=O)O[C@](Cc1ccccc1)(c1ccccc1)[C@H](C)CN(C)C` [propoxyphene hydrochloride, reference compound], the inhibition of writhing in experiment [3] is on record as 50%.
